Results reported in patent US20240109864A1, “SUBSTITUTED PYRAZOLYL PIPERIDINE CARBOXYLIC ACIDS” (BAYER AKTIENGESELLSCHAFT, priority 2020, published 2024).
Counter-ions that a name gives are not always drawn.

Target: T1, recombinant guanylate cyclase reporter cell line (Rattus norvegicus, UniProt P20595)
T1 construct: expressed in transfected cells
T1 sequence (P20595 1-619): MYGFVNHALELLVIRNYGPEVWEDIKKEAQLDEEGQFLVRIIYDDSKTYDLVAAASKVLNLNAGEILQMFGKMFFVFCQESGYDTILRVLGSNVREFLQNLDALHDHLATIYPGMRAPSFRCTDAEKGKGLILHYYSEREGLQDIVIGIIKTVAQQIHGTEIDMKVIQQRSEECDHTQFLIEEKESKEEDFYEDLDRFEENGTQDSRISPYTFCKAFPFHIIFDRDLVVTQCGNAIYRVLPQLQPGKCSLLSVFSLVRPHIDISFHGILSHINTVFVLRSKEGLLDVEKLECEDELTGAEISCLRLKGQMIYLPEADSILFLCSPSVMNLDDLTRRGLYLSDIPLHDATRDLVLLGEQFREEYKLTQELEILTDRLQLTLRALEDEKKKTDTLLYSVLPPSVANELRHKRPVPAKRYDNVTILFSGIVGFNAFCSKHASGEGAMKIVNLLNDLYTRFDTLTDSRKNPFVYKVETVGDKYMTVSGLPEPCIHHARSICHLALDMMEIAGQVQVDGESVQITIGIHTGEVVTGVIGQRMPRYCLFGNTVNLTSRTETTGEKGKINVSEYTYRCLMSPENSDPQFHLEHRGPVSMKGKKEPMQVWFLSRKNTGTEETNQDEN
T1 sequence (P19686 1-690 partner): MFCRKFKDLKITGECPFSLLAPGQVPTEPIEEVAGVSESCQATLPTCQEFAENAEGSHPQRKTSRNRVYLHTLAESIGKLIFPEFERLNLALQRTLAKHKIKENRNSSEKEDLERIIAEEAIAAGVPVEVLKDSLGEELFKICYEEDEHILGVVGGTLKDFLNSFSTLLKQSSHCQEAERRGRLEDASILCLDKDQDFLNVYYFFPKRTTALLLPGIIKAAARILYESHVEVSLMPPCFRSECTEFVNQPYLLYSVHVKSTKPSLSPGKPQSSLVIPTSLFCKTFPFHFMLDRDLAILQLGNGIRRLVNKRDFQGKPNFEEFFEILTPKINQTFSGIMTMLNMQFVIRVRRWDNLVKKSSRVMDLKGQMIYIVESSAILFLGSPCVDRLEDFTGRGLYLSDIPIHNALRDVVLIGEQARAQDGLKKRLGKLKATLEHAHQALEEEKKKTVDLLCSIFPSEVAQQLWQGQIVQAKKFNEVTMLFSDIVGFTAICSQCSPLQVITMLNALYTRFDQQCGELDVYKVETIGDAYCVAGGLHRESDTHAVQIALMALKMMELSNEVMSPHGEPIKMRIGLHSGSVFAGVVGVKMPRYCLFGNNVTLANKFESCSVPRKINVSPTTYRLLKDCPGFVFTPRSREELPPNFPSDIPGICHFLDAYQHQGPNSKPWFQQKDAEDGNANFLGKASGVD
Experiment: Effect on a recombinant guanylate cyclase reporter cell line
Assay type: cell-based
Details: in some cases mean values from individual determinations; for MEC: MEC = minimum effective concentration; for EC50: half maximal effective concentration
Experimental: The cellular activity of the compounds according to the invention was determined using a recombinant guanylate cyclase reporter cell line, as described in F. Wunder et al., Anal. Biochem. 339, 104-112 (2005).

SMILES	MEC	EC50
CC(C)COC(=O)N1CCN(c2ccc(-c3ccc(Cl)cc3N3CCCC(n4ncc(C(=O)O)c4C(F)(F)F)C3)cc2)CC1 (single isomer, unassigned) [Example 59, 1-[1-[5-Chloro-2-[4-(4-isobutoxycarbonylpiperazin-1-yl)phenyl]phenyl]-3-piperidyl]-5-(trifluoromethyl)pyrazole-4-carboxylic acid]	10.0 nM	40.5 nM
O=C(O)c1cnn(C2CCCN(c3cc(Cl)ccc3-c3ccc(N4CCN(C(=O)OCCOC(F)(F)F)CC4)cc3)C2)c1C(F)(F)F (single isomer, unassigned) [Example 64, 1-[1-[5-Chloro-2-[4-[4-[2-(trifluoromethoxy)ethoxycarbonyl]piperazin-1-yl]phenyl]phenyl]-3-piperidyl]-5-(trifluoromethyl)pyrazole-4-carboxylic acid]	30.0 nM	84 nM
CNC(=O)N1CCN(c2ccc(-c3ccc(Cl)cc3N3CCCC(n4ncc(C(=O)O)c4C(F)(F)F)C3)cc2)CC1 (single isomer, unassigned) [Example 65, 1-[1-[5-Chloro-2-[4-[4-(methylcarbamoyl)piperazin-1-yl]phenyl]phenyl]-3-piperidyl]-5-(trifluoromethyl)pyrazole-4-carboxylic acid]	10.0 nM	56.5 nM
CCNC(=O)N1CCN(c2ccc(-c3ccc(Cl)cc3N3CCCC(n4ncc(C(=O)O)c4C(F)(F)F)C3)cc2)CC1 (single isomer, unassigned) [Example 66, 1-[1-[5-Chloro-2-[4-[4-(ethylcarbamoyl)piperazin-1-yl]phenyl]phenyl]-3-piperidyl]-5-(trifluoromethyl)pyrazole-4-carboxylic acid]	3.0 nM	28.5 nM
CS(=O)(=O)N1CCN(c2ccc(-c3ccc(Cl)cc3N3CCCC(n4ncc(C(=O)O)c4C(F)(F)F)C3)cc2)CC1 (single isomer, unassigned) [Example 67, 1-[1-[5-Chloro-2-[4-(4-methylsulfonylpiperazin-1-yl)phenyl]phenyl]-3-piperidyl]-5-(trifluoromethyl)pyrazole-4-carboxylic acid hydrochloride]	30.0 nM	45 nM
CCN1CCN(c2ccc(-c3ccc(Cl)cc3N3CCCC(n4ncc(C(=O)O)c4C(F)(F)F)C3)c(F)c2)CC1 (single isomer, unassigned) [Example 68, 1-[1-[5-Chloro-2-[4-(4-ethylpiperazin-1-yl)-2-fluoro-phenyl]phenyl]-3-piperidyl]-5-(trifluoromethyl)pyrazole-4-carboxylic acid hydrochloride]	3.0 nM	36.5 nM
O=C(O)c1cnn(C2CCCN(c3cc(Cl)ccc3-c3ccc(N4CCN(CC5CC5)CC4)cc3F)C2)c1C(F)(F)F (single isomer, unassigned) [Example 69, 1-[1-[5-Chloro-2-[4-[4-(cyclopropylmethyl)piperazin-1-yl]-2-fluoro-phenyl]phenyl]-3-piperidyl]-5-(trifluoromethyl)pyrazole-4-carboxylic acid hydrochloride]	3.0 nM	13.8 nM
CCN1CCN(c2ccc(-c3ccc(Cl)cc3N3CCCC(n4ncc(C(=O)O)c4C(F)(F)F)C3)cc2F)CC1 (single isomer, unassigned) [Example 70, 1-[1-[5-Chloro-2-[4-(4-ethylpiperazin-1-yl)-3-fluoro-phenyl]phenyl]-3-piperidyl]-5-(trifluoromethyl)pyrazole-4-carboxylic acid]	30.0 nM	99 nM
O=C(O)c1cnn(C2CCCN(c3cc(Cl)ccc3-c3ccc(N4CCN(CC5CC5)CC4)c(F)c3)C2)c1C(F)(F)F (single isomer, unassigned) [Example 71, 1-[1-[5-Chloro-2-[4-[4-(cyclopropylmethyl)piperazin-1-yl]-3-fluoro-phenyl]phenyl]-3-piperidyl]-5-(trifluoromethyl)pyrazole-4-carboxylic acid hydrochloride]	10.0 nM	69.5 nM
CN1CCN(c2ccc(-c3ccc(Cl)cc3N3CCCC(n4ncc(C(=O)O)c4C(F)(F)F)C3)c(Cl)c2)CC1 (single isomer, unassigned) [Example 72, 1-[1-[5-Chloro-2-[2-chloro-4-(4-methylpiperazin-1-yl)phenyl]phenyl]-3-piperidyl]-5-(trifluoromethyl)pyrazole-4-carboxylic acid formic acid adduct]	10.0 nM	64.5 nM

Results, then the molecule that gave them:

MEC	EC50	SMILES
3.0 nM	10.4 nM	CCOC(=O)N1CCN(c2ccc(-c3ccc(Cl)cc3N3CCCC(n4ncc(C(=O)O)c4C(F)(F)F)C3)cc2)CC1 (single isomer, unassigned) [Example 55, 1-[1-[5-Chloro-2-[4-(4-ethoxycarbonylpiperazin-1-yl)phenyl]phenyl]-3-piperidyl]-5-(trifluoromethyl)pyrazole-4-carboxylic acid]
3.0 nM	18 nM	CC(C)OC(=O)N1CCN(c2ccc(-c3ccc(Cl)cc3N3CCCC(n4ncc(C(=O)O)c4C(F)(F)F)C3)cc2)CC1 (single isomer, unassigned) [Example 56, 1-[1-[5-Chloro-2-[4-(4-isopropoxycarbonylpiperazin-1-yl)phenyl]phenyl]-3-piperidyl]-5-(trifluoromethyl)pyrazole-4-carboxylic acid]
1.0 nM	6.3 nM	O=C(O)c1cnn(C2CCCN(c3cc(Cl)ccc3-c3ccc(N4CCN(C(=O)OC5CC5)CC4)cc3)C2)c1C(F)(F)F (single isomer, unassigned) [Example 57, 1-[1-[5-Chloro-2-[4-[4-(cyclopropoxycarbonyl)piperazin-1-yl]phenyl]phenyl]-3-piperidyl]-5-(trifluoromethyl)pyrazole-4-carboxylic acid]
10.0 nM	42.5 nM	CCCOC(=O)N1CCN(c2ccc(-c3ccc(Cl)cc3N3CCCC(n4ncc(C(=O)O)c4C(F)(F)F)C3)cc2)CC1 (single isomer, unassigned) [Example 58, 1-[1-[5-Chloro-2-[4-(4-propoxycarbonylpiperazin-1-yl)phenyl]phenyl]-3-piperidyl]-5-(trifluoromethyl)pyrazole-4-carboxylic acid]
10.0 nM	47.5 nM	O=C(O)c1cnn(C2CCCN(c3cc(Cl)ccc3-c3ccc(N4CCN(C(=O)OCC5CC5)CC4)cc3)C2)c1C(F)(F)F (single isomer, unassigned) [Example 60, 1-[1-[5-Chloro-2-[4-[4-(cyclopropylmethoxycarbonyl)piperazin-1-yl]phenyl]phenyl]-3-piperidyl]-5-(trifluoromethyl)pyrazole-4-carboxylic acid]
3.0 nM	21 nM	O=C(O)c1cnn(C2CCCN(c3cc(Cl)ccc3-c3ccc(N4CCN(C(=O)OCC5CCC5)CC4)cc3)C2)c1C(F)(F)F (single isomer, unassigned) [Example 61, 1-[1-[5-Chloro-2-[4-[4-(cyclobutylmethoxycarbonyl)piperazin-1-yl]phenyl]phenyl]-3-piperidyl]-5-(trifluoromethyl)pyrazole-4-carboxylic acid]
10.0 nM	57.5 nM	COCCOC(=O)N1CCN(c2ccc(-c3ccc(Cl)cc3N3CCCC(n4ncc(C(=O)O)c4C(F)(F)F)C3)cc2)CC1 (single isomer, unassigned) [Example 62, 1-[1-[5-Chloro-2-[4-[4-(2-methoxyethoxycarbonyl)piperazin-1-yl]phenyl]phenyl]-3-piperidyl]-5-(trifluoromethyl)pyrazole-4-carboxylic acid]
10.0 nM	27 nM	COCCCOC(=O)N1CCN(c2ccc(-c3ccc(Cl)cc3N3CCCC(n4ncc(C(=O)O)c4C(F)(F)F)C3)cc2)CC1 (single isomer, unassigned) [Example 63, 1-[1-[5-Chloro-2-[4-[4-(3-methoxypropoxycarbonyl)piperazin-1-yl]phenyl]phenyl]-3-piperidyl]-5-(trifluoromethyl)pyrazole-4-carboxylic acid]
